{"source": "patent US11472804B2", "about": "“Compositions and methods for modulating hair growth” (The Regents of the University of California, priority 2017, dated 2022)", "key": {"hair cycle": {"system": "hair cycle", "assay": "Topical treatment of mice in telogen with UK-5099, hair cycle", "type": "in vivo", "description": "(§1) FIG. 7A: Animals treated topically with UK-5099 (20 μM) show pigmentation and hair growth, indicative of entry into anagen, after 8 days of treatment. Full anagen, indicated by full coat of hair, is achieved after 14 days of treatment. […] Images shown are representative of at least 14 mice from 7 independent experiments. Scale bars indicate 100 micrometers. FIG. 7B: Graph showing time to observed phenotype in vehicle versus UK-5099 treated mice. n=6 mice per condition. Shown as mean±SEM. […] Ldh activity is indicated by purple stain; pink is nuclear fast red counterstain. Scale bars indicate 50 micrometers. FIG. 7D: Metabolomic analysis of Lactate on HFSCs isolated from UK-5099 treated skin for 48 hours; Each bar represents the average signal for each condition where n=9 mice pooled from 3 independent experiments. Shown as mean±SEM. Paired t-test was performed, p<0.05.\n(§2) Quantification of the hair cycle across at least 6 pairs of animals (vehicle vs UK-5099) indicated a strong acceleration of the hair cycle, in as few as 6-9 days (FIG. 7B)."}, "Ldh": {"system": "Ldh", "assay": "Ldh enzyme activity assay in the epidermis of topically treated animals", "type": "in vivo, mice", "conditions": "topical, 48 hours during telogen", "description": "as §1\nTo determine whether Ldha expression patterns correlate with activity of the Ldh enzyme, a colorimetric-based enzymatic assay was used to assess Ldh activity capacity in situ. Typically performed on protein lysates or aliquots with a plate reader, the Ldh activity assay was adapted to work in situ on frozen tissue sections. […]\nas §2"}, "HFSCs": {"system": "HFSCs", "assay": "Metabolomic analysis of lactate on HFSCs isolated from treated skin", "type": "in vivo, mice", "conditions": "topical application, treated skin for 48 hours", "description": "as §1, §2"}, "[1]": {"conditions": "topical treatment of animals in telogen (day 50)"}}, "note": "Entries after “also recorded” stand apart in the source; their conditions may differ."}
{"smiles": "N#C/C(=C\\c1cn(-c2ccccc2)c2ccccc12)C(=O)O", "note": "[UK-5099, (E)-2-Cyano-3-(1-phenyl-1H-indol-3-yl)acrylic acid]", "values": [{"measurement": "acceleration of the hair cycle", "setting": "hair cycle; [1]", "value": "robust acceleration of the hair cycle"}, {"measurement": "proliferation of the interfollicular epidermis", "setting": "hair cycle; [1]", "value": "minor hyperproliferation of the interfollicular epidermis"}, {"measurement": "skin pathology, hair cycle stage", "setting": "hair cycle; topical, 20 μM, at 8 weeks", "value": "enter an accelerated anagen"}, {"measurement": "full anagen, indicated by full coat of hair, time of treatment", "setting": "hair cycle; topical, 20 μM, mice", "value": 14, "unit": "days"}, {"measurement": "pigmentation and hair growth, indicative of entry into anagen, time of treatment", "setting": "hair cycle; topical, 20 μM, mice", "value": 8, "unit": "days"}, {"measurement": "quantification of the hair cycle, time to acceleration", "setting": "hair cycle; topical, at least 6 pairs of animals, vehicle vs UK-5099", "value": "6 to 9", "unit": "days"}, {"measurement": "Ldh activity in HFSCs and interfollicular epidermis", "setting": "Ldh", "value": "increased Ldh activity; also recorded: Ldh enzyme activity also seen in interfollicular epidermis"}, {"measurement": "total levels of lactate in sorted HFSCs", "setting": "HFSCs", "value": "increases total levels of lactate"}]}
